Reference: ChEMBL document CHEMBL1909046, “DrugMatrix in vitro pharmacology data”

Legend:
[1] = target: T1, Alpha-1D adrenergic receptor (Homo sapiens, UniProt P25100); type: cell membranes, HEK293, Membrane; conditions: hek293; note: in other assays of this panel Not Active means under 50% inhibition at 10 µM
T1 sequence (P25100 whole entry): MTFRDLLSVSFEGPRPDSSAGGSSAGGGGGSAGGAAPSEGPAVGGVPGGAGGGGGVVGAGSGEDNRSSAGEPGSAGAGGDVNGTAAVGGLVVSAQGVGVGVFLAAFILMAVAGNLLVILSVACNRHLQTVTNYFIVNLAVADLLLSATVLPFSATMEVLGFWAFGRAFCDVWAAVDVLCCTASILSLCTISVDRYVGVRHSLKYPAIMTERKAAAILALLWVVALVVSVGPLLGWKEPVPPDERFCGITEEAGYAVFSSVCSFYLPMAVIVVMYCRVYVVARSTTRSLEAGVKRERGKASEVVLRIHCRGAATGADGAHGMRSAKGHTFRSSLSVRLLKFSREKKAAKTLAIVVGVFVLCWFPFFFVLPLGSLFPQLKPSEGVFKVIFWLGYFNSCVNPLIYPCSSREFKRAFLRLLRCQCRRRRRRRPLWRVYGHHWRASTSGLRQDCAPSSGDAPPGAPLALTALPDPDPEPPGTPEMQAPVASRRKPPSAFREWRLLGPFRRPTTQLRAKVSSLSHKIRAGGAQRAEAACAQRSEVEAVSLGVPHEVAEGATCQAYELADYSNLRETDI

[2] = target: T2, Alpha-2C adrenergic receptor (Homo sapiens, UniProt P18825); experiment: DRUGMATRIX: Adrenergic Alpha-2C radioligand binding (ligand: [3H] MK-912); type: cell membranes, Sf9, Membrane; conditions: sf9
T2 sequence (P18825 whole entry): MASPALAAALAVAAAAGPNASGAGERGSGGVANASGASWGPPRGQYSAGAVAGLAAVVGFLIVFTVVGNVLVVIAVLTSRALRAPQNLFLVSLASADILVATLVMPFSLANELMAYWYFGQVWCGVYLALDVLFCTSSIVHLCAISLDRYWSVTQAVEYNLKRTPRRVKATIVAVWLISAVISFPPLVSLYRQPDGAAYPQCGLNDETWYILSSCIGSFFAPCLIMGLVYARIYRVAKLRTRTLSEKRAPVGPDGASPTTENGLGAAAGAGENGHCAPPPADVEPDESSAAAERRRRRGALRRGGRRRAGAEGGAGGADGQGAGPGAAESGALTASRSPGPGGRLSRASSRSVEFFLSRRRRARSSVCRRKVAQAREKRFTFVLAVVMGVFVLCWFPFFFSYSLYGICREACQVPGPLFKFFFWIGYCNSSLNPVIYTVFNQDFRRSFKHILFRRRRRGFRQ

[3] = target: Beta-2 adrenergic receptor (Homo sapiens, UniProt P07550); experiment: DRUGMATRIX: Adrenergic beta2 radioligand binding (ligand: [3H] CGP-12177); type: cell membranes, Membrane; conditions: cho; Not Active = under 50% inhibition at 10 µM
Beta-2 adrenergic receptor, sequence (P07550 whole entry): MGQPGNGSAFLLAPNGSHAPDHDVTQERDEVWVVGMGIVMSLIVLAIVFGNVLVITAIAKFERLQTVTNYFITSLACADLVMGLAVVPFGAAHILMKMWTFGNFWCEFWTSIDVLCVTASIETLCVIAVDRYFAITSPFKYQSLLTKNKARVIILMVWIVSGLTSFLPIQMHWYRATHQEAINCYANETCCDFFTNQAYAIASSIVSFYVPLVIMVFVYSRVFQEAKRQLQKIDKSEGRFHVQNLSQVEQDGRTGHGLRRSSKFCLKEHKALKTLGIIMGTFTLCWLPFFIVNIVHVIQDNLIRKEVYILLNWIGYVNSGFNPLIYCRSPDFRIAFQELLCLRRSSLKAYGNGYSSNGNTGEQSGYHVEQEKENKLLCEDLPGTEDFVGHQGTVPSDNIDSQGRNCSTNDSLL

[4] = target: Aldo-keto reductase family 1 member B1 (Rattus norvegicus, UniProt P07943); type: tissue-based, Lens of camera-type eye;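 note: inhibition of aldose reductase enzyme activity, measured with DL-glyceraldehyde as the substrate; in other assays of this panel Not Active means under 50% inhibition at 10 µM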
[5] = DRUGMATRIX: Tumor Necrosis Factor (TNF), Non-Selective radioligand binding (ligand: [125I] TNF-alpha); type: cell membranes, Membrane; conditions: u-937; Not Active = under 50% inhibition at 10 µM
[6] = target: T3, Vasoactive intestinal polypeptide receptor 1 (Homo sapiens, UniProt P32241); type: cell membranes, Membrane; conditions: ht-29; note: in other assays of this panel Not Active means under 50% inhibition at 10 µM
T3 sequence (P32241 whole entry): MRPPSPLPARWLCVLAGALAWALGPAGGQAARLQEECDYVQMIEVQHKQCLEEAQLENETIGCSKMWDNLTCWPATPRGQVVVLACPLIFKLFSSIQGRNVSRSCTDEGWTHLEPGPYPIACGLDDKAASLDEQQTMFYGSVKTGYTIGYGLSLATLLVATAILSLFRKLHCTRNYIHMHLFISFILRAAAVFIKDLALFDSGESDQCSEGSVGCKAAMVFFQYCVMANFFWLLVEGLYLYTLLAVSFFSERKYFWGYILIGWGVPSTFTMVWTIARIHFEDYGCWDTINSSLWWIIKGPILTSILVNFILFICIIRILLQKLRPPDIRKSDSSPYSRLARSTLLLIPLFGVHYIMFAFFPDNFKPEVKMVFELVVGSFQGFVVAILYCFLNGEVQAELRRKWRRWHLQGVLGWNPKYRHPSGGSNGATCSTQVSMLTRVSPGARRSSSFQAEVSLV

[7] = DRUGMATRIX: Nicotinic Acetylcholine radioligand binding (ligand: [125I] Epibatidine); type: cell membranes, Membrane; conditions: imr-32; Not Active = under 50% inhibition at 10 µM
Mu-type opioid receptor = Mu-type opioid receptor (Homo sapiens, UniProt P35372); experiment: DRUGMATRIX: Opiate mu (OP3, MOP) radioligand binding (ligand: [3H] Diprenorphine); type: cell membranes, CHO-K1, Membrane; conditions: cho-k1; Not Active = under 50% inhibition at 10 µM
Mu-type opioid receptor, sequence (P35372 whole entry): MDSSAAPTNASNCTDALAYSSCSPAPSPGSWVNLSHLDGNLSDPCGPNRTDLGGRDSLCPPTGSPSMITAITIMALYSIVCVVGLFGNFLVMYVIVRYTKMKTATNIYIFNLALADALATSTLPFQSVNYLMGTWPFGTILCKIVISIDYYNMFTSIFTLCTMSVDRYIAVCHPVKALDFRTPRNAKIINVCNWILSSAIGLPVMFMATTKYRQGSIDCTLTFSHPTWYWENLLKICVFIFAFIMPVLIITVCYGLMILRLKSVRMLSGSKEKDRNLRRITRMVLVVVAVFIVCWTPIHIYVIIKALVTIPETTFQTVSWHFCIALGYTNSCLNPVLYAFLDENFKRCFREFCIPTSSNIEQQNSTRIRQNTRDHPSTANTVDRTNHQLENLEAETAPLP

[8] = DRUGMATRIX: Platelet-Derived Growth Factor (PDGF) radioligand binding (ligand: [125I] PDGF); type: cell-based; conditions: nih3t3; Not Active = under 50% inhibition at 10 µM
Cathepsin G = target: T4, Cathepsin G (Homo sapiens, UniProt P08311); type: tissue-based; conditions: neutrophil;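 note: inhibition of Cathepsin G enzyme activity, tested on an AMC-conjugated peptide substrate; in other assays of this panel Not Active means under 50% inhibition at 10 µM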
T4 sequence (P08311 whole entry): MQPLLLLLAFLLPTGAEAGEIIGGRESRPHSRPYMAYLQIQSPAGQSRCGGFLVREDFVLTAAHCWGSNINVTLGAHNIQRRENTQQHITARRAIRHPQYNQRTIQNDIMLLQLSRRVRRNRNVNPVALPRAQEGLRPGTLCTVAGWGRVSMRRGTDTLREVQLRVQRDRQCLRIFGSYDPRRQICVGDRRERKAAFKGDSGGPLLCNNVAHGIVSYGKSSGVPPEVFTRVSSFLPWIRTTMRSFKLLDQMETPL

[9] = target: Mitogen-activated protein kinase 1 (Homo sapiens, UniProt P28482); experiment: DRUGMATRIX: Protein Serine/Threonine Kinase, ERK2 enzyme inhibition (substrate: Myelin Basic Protein); design: species or system Escherichia coli; conditions: Not Active = under 50% inhibition at 10 µM
Mitogen-activated protein kinase 1, sequence (P28482 whole entry): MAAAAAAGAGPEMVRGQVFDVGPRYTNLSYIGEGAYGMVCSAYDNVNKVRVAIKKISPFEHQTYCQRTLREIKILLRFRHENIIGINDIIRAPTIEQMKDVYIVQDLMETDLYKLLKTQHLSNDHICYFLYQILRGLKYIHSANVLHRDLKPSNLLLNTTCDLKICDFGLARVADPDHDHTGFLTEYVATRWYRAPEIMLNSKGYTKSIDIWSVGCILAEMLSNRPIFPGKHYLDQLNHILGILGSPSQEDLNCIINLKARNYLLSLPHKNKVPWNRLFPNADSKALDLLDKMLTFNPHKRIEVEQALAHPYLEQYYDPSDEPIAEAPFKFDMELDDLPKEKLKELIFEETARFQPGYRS

[10] = target: 5-hydroxytryptamine receptor 1B (Rattus norvegicus, UniProt P28564); type: cell membranes, Wistar, Cerebral cortex, Membrane; note: in other assays of this panel Not Active means under 50% inhibition at 10 µM
5-hydroxytryptamine receptor 1B, sequence (P28564 whole entry): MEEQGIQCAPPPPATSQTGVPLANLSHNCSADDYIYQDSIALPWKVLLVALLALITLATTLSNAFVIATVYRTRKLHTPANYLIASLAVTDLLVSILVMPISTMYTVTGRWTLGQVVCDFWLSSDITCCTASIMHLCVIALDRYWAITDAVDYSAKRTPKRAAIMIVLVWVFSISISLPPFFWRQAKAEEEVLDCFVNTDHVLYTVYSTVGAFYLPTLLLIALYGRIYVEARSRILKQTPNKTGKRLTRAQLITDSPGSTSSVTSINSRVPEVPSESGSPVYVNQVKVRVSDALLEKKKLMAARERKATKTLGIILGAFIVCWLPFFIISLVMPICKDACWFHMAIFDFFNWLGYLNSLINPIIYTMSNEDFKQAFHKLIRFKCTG

Cytochrome P450 2E1 = Cytochrome P450 2E1 (Homo sapiens, UniProt P05181); conditions: bti-tn-5b1-4; note: in other assays of this panel Not Active means under 50% inhibition at 10 µM
Cytochrome P450 2E1, sequence (P05181 whole entry): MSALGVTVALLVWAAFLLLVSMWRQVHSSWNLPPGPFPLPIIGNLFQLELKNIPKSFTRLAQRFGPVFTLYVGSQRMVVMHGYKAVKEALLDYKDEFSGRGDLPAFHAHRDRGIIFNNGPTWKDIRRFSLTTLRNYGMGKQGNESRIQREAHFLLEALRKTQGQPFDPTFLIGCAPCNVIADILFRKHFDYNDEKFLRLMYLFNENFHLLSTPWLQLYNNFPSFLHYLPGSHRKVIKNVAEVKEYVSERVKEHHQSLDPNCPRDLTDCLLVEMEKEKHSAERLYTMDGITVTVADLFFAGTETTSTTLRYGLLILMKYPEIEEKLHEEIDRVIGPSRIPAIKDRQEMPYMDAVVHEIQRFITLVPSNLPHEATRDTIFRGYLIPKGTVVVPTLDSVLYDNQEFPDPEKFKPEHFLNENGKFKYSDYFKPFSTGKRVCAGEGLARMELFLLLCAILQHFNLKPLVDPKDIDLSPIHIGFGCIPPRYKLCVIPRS

CCCc1cc(=O)[nH]c(=S)[nH]1 [PROPYLTHIOURACIL]
Not Active: IC50 [1] | IC50 [2] | IC50 [3] | IC50 [4] | IC50 [5] | Ki [5] | IC50 [6] | IC50 [7] | Ki [7] | IC50 (Mu-type opioid receptor) | IC50 [8] | Ki [8] | IC50 (Cathepsin G) | IC50 [9] | IC50 [10] | IC50 (Cytochrome P450 2E1) | Ki (Cytochrome P450 2E1)

COc1ccc(CN(CCN(C)C)c2ccccn2)cc1 [PYRILAMINE]
Not Active: IC50 [1] | IC50 [2] | IC50 [3] | IC50 [4] | IC50 [5] | Ki [5] | IC50 [6] | IC50 [7] | Ki [7] | IC50 (Mu-type opioid receptor) | IC50 [8] | Ki [8] | IC50 (Cathepsin G) | IC50 [9] | IC50 [10] | IC50 (Cytochrome P450 2E1) | Ki (Cytochrome P450 2E1)
